Values quoted from earlier work as cited in PMC11728000, “Antitumor Activity and Multi-Target Mechanism of Phenolic Schiff Bases Bearing Methanesulfonamide Fragments: Cell Cycle Analysis and a Molecular Modeling Study” (International Journal of Molecular Sciences, 2024).

What was measured:
[1] = test system: CCRF-CEM; set-up: method as in https://dtp.cancer.gov/dtpstandard/dwindex/index.jsp; settings: ref https://dtp.cancer.gov/dtpstandard/dwindex/index.jsp; cited from earlier work
[2] = test system: MOLT-4; set-up: method as in https://dtp.cancer.gov/dtpstandard/dwindex/index.jsp; settings: ref https://dtp.cancer.gov/dtpstandard/dwindex/index.jsp; cited from earlier work
[3] = test system: A549/ATCC; set-up: method as in https://dtp.cancer.gov/dtpstandard/dwindex/index.jsp; settings: ref https://dtp.cancer.gov/dtpstandard/dwindex/index.jsp; cited from earlier work
[4] = test system: HOP-62; set-up: method as in https://dtp.cancer.gov/dtpstandard/dwindex/index.jsp; settings: ref https://dtp.cancer.gov/dtpstandard/dwindex/index.jsp; cited from earlier work
[5] = test system: NCI-H226; set-up: method as in https://dtp.cancer.gov/dtpstandard/dwindex/index.jsp; settings: ref https://dtp.cancer.gov/dtpstandard/dwindex/index.jsp; cited from earlier work
[6] = test system: NCI-H23; set-up: method as in https://dtp.cancer.gov/dtpstandard/dwindex/index.jsp; settings: ref https://dtp.cancer.gov/dtpstandard/dwindex/index.jsp; cited from earlier work
[7] = test system: NCI-H322M; set-up: method as in https://dtp.cancer.gov/dtpstandard/dwindex/index.jsp; settings: ref https://dtp.cancer.gov/dtpstandard/dwindex/index.jsp; cited from earlier work
[8] = test system: COLO 205; set-up: method as in https://dtp.cancer.gov/dtpstandard/dwindex/index.jsp; settings: ref https://dtp.cancer.gov/dtpstandard/dwindex/index.jsp; cited from earlier work
[9] = test system: HCT-15; set-up: method as in https://dtp.cancer.gov/dtpstandard/dwindex/index.jsp; settings: ref https://dtp.cancer.gov/dtpstandard/dwindex/index.jsp; cited from earlier work
[10] = test system: HT29; set-up: method as in https://dtp.cancer.gov/dtpstandard/dwindex/index.jsp; settings: ref https://dtp.cancer.gov/dtpstandard/dwindex/index.jsp; cited from earlier work
[11] = test system: SF-268; set-up: method as in https://dtp.cancer.gov/dtpstandard/dwindex/index.jsp; settings: ref https://dtp.cancer.gov/dtpstandard/dwindex/index.jsp; cited from earlier work
[12] = test system: SF-539; set-up: method as in https://dtp.cancer.gov/dtpstandard/dwindex/index.jsp; settings: ref https://dtp.cancer.gov/dtpstandard/dwindex/index.jsp; cited from earlier work
[13] = test system: SNB-19; set-up: method as in https://dtp.cancer.gov/dtpstandard/dwindex/index.jsp; settings: ref https://dtp.cancer.gov/dtpstandard/dwindex/index.jsp; cited from earlier work
[14] = test system: U251; set-up: method as in https://dtp.cancer.gov/dtpstandard/dwindex/index.jsp; settings: ref https://dtp.cancer.gov/dtpstandard/dwindex/index.jsp; cited from earlier work
[15] = test system: LOX IMVI; set-up: method as in https://dtp.cancer.gov/dtpstandard/dwindex/index.jsp; settings: ref https://dtp.cancer.gov/dtpstandard/dwindex/index.jsp; cited from earlier work
[16] = test system: MALME-3M; set-up: method as in https://dtp.cancer.gov/dtpstandard/dwindex/index.jsp; settings: ref https://dtp.cancer.gov/dtpstandard/dwindex/index.jsp; cited from earlier work
[17] = test system: M14; set-up: method as in https://dtp.cancer.gov/dtpstandard/dwindex/index.jsp; settings: ref https://dtp.cancer.gov/dtpstandard/dwindex/index.jsp; cited from earlier work
[18] = test system: MDA-MB-435; set-up: method as in https://dtp.cancer.gov/dtpstandard/dwindex/index.jsp; settings: ref https://dtp.cancer.gov/dtpstandard/dwindex/index.jsp; cited from earlier work
[19] = test system: SK-MEL-2; set-up: method as in https://dtp.cancer.gov/dtpstandard/dwindex/index.jsp; settings: ref https://dtp.cancer.gov/dtpstandard/dwindex/index.jsp; cited from earlier work
[20] = test system: UACC-62; set-up: method as in https://dtp.cancer.gov/dtpstandard/dwindex/index.jsp; settings: ref https://dtp.cancer.gov/dtpstandard/dwindex/index.jsp; cited from earlier work
[21] = test system: OVCAR-5; set-up: method as in https://dtp.cancer.gov/dtpstandard/dwindex/index.jsp; settings: ref https://dtp.cancer.gov/dtpstandard/dwindex/index.jsp; cited from earlier work
[22] = test system: NCI/ADR-RES; set-up: method as in https://dtp.cancer.gov/dtpstandard/dwindex/index.jsp; settings: ref https://dtp.cancer.gov/dtpstandard/dwindex/index.jsp; cited from earlier work
[23] = test system: ACHN; set-up: method as in https://dtp.cancer.gov/dtpstandard/dwindex/index.jsp; settings: ref https://dtp.cancer.gov/dtpstandard/dwindex/index.jsp; cited from earlier work
[24] = test system: SN12C; set-up: method as in https://dtp.cancer.gov/dtpstandard/dwindex/index.jsp; settings: ref https://dtp.cancer.gov/dtpstandard/dwindex/index.jsp; cited from earlier work
[25] = test system: TK-10; set-up: method as in https://dtp.cancer.gov/dtpstandard/dwindex/index.jsp; settings: ref https://dtp.cancer.gov/dtpstandard/dwindex/index.jsp; cited from earlier work
[26] = test system: DU-145; set-up: method as in https://dtp.cancer.gov/dtpstandard/dwindex/index.jsp; settings: ref https://dtp.cancer.gov/dtpstandard/dwindex/index.jsp; cited from earlier work
[27] = test system: MDA-MB-231/ATCC; set-up: method as in https://dtp.cancer.gov/dtpstandard/dwindex/index.jsp; settings: ref https://dtp.cancer.gov/dtpstandard/dwindex/index.jsp; cited from earlier work
[28] = test system: HS 578T; set-up: method as in https://dtp.cancer.gov/dtpstandard/dwindex/index.jsp; settings: ref https://dtp.cancer.gov/dtpstandard/dwindex/index.jsp; cited from earlier work
[29] = test system: Leukemia subpanel tumor cell lines; settings: cited from earlier work; for GI50: read-out: GI50, subpanel average, ref https://dtp.cancer.gov/dtpstandard/dwindex/index.jsp; for TGI, subpanel average: ref https://dtp.cancer.gov/dtpstandard/dwindex/index.jsp
[30] = test system: NSC Lung Cancer subpanel tumor cell lines; settings: cited from earlier work; for GI50: read-out: GI50, subpanel average, ref https://dtp.cancer.gov/dtpstandard/dwindex/index.jsp; for TGI, subpanel average: ref https://dtp.cancer.gov/dtpstandard/dwindex/index.jsp
[31] = test system: Colon Cancer subpanel tumor cell lines; settings: cited from earlier work; for GI50: read-out: GI50, subpanel average, ref https://dtp.cancer.gov/dtpstandard/dwindex/index.jsp; for TGI, subpanel average: ref https://dtp.cancer.gov/dtpstandard/dwindex/index.jsp
[32] = test system: Ovarian Cancer subpanel tumor cell lines; settings: cited from earlier work; for GI50: read-out: GI50, subpanel average, ref https://dtp.cancer.gov/dtpstandard/dwindex/index.jsp; for TGI, subpanel average: ref https://dtp.cancer.gov/dtpstandard/dwindex/index.jsp
[33] = test system: Prostate Cancer subpanel tumor cell lines; settings: cited from earlier work; for GI50: read-out: GI50, subpanel average, ref https://dtp.cancer.gov/dtpstandard/dwindex/index.jsp; for TGI, subpanel average: ref https://dtp.cancer.gov/dtpstandard/dwindex/index.jsp
[34] = test system: 59 human cancer cell lines; settings: full panel mean-graph midpoint, ref https://dtp.cancer.gov/dtpstandard/dwindex/index.jsp, cited from earlier work; for GI50: read-out: GI50 MG-MID
[35] = test system: EKVX; set-up: method as in https://dtp.cancer.gov/dtpstandard/dwindex/index.jsp; settings: ref https://dtp.cancer.gov/dtpstandard/dwindex/index.jsp; cited from earlier work
[36] = test system: SW-620; set-up: method as in https://dtp.cancer.gov/dtpstandard/dwindex/index.jsp; settings: ref https://dtp.cancer.gov/dtpstandard/dwindex/index.jsp; cited from earlier work
[37] = test system: OVCAR-4; set-up: method as in https://dtp.cancer.gov/dtpstandard/dwindex/index.jsp; settings: ref https://dtp.cancer.gov/dtpstandard/dwindex/index.jsp; cited from earlier work
[38] = test system: MCF-7; set-up: method as in https://dtp.cancer.gov/dtpstandard/dwindex/index.jsp; settings: ref https://dtp.cancer.gov/dtpstandard/dwindex/index.jsp; cited from earlier work
[39] = read-out: LC50, subpanel average, ref https://dtp.cancer.gov/dtpstandard/dwindex/index.jsp

Structure (SMILES): COc1cc2ncnc(Nc3ccc(F)c(Cl)c3)c2cc1OCCCN1CCOCC1 [Gefitinib, gefitinib]
- GI50 [1]: 0.398 µM
- GI50 [2]: 2 µM
- GI50 [3]: 2.51 µM
- GI50 [4]: 3.16 µM
- GI50 [5]: 3.98 µM
- GI50 [6]: 2.51 µM
- GI50 [7]: 63 nM
- GI50 [8]: 7.94 µM
- GI50 [9]: 3.98 µM
- GI50 [10]: 3.98 µM
- GI50 [11]: 2.51 µM
- GI50 [12]: 10 µM
- GI50 [13]: 3.16 µM
- GI50 [14]: 3.16 µM
- GI50 [15]: 3.16 µM
- GI50 [16]: 3980 nM
- GI50 [17]: 2 µM
- GI50 [18]: 3.16 µM
- GI50 [19]: 10 µM
- GI50 [20]: 2000 nM
- GI50 [21]: 3.98 µM
- GI50 [22]: 1.26 µM
- GI50 [23]: 158 nM
- GI50 [24]: 1260 nM
- GI50 [25]: 794 nM
- GI50 [26]: 1580 nM
- GI50 [27]: 3.98 µM
- GI50 [28]: 7.94 µM
- GI50 [29]: 2.56 µM
- TGI, subpanel average [29]: 12.07 µM
- GI50 [30]: 2.05 µM
- TGI, subpanel average [30]: 13.86 µM
- GI50 [31]: 5.23 µM
- TGI, subpanel average [31]: 18.47 µM
- GI50 [32]: 3.05 µM
- TGI, subpanel average [32]: 33.29 µM
- GI50 [33]: 3.29 µM
- TGI, subpanel average [33]: 31.62 µM
- TGI MG-MID [34]: 14.3 µM
- GI50 [34]: 2.1 µM

Structure (SMILES): C#Cc1cccc(Nc2ncnc3cc(OCCOC)c(OCCOC)cc23)c1 [Erlotinib, erlotinib]
- GI50 [1]: 50.1 µM
- GI50 [2]: 25.1 µM
- GI50 [3]: 10 µM
- GI50 [35]: 199 nM
- GI50 [4]: 15.8 µM
- GI50 [5]: 39.8 µM
- GI50 [6]: 31.6 µM
- GI50 [7]: 100 nM
- GI50 [8]: 50.1 µM
- GI50 [9]: 3.98 µM
- GI50 [10]: 63.1 µM
- GI50 [36]: 79.4 µM
- GI50 [11]: 15.8 µM
- GI50 [12]: 19.9 µM
- GI50 [13]: 12.6 µM
- GI50 [14]: 25.1 µM
- GI50 [15]: 6.31 µM
- GI50 [16]: 1580 nM
- GI50 [17]: 6.31 µM
- GI50 [18]: 19.9 µM
- GI50 [19]: 6.31 µM
- GI50 [20]: 3160 nM
- GI50 [37]: 10 µM
- GI50 [21]: 7.94 µM
- GI50 [22]: 7.94 µM
- GI50 [23]: 199 nM
- GI50 [24]: 1580 nM
- GI50 [25]: 251 nM
- GI50 [26]: 1990 nM
- GI50 [38]: 100 µM
- GI50 [27]: 6.31 µM
- GI50 [28]: 6.31 µM
- GI50 [29]: 27.9 µM
- CC50 [29, 39]: > 100 µM
- TGI, subpanel average [29]: 96.57 µM
- GI50 [30]: 13.1 µM
- CC50 [30, 39]: 97.7 µM
- TGI, subpanel average [30]: 73.76 µM
- GI50 [31]: 51.7 µM
- CC50 [31, 39]: > 100 µM
- TGI, subpanel average [31]: c (compounds showed values ≥ 100 μM)
- GI50 [32]: 5.52 µM
- CC50 [32, 39]: 97.1 µM
- TGI, subpanel average [32]: 74.41 µM
- GI50 [33]: 20.9 µM
- CC50 [33, 39]: > 100 µM
- TGI, subpanel average [33]: c (compounds showed values ≥ 100 μM)
- TGI MG-MID [34]: 66.3 µM
- GI50 [34]: 7.68 µM
- CC50 ([34]; read-out: LC50 MG-MID): 95.6 µM
